# From paper PMC7153024, “New 8-Nitroquinolinone Derivative Displaying Submicromolar in Vitro Activities against Both Trypanosoma brucei and cruzi” (ACS Medicinal Chemistry Letters, 2020)
# Several values for one entry are separate records, joined by “and”; a condition that tells them apart may be missing. Equal values may be shown once. Entries after “also recorded” stand apart in the source; their conditions may differ. Read-outs that look alike come from different tables or passages of the source.
# Columns and labels:
# [1] = test system: HepG2 cell line; conditions: read-out: Cytotoxicity HepG2 CC50, cited from earlier work
# [2] = test system: L. infantum axenic amastigotes; assay: Antileishmanial activity on L. infantum axenic amastigotes; type: cell-based, Leishmania infantum; conditions: for Activity toward L. infantum (in words): axenic amastigotes
# Description: Experiments were performed at room temperature
# The supporting electrolyte
# The redox potentials measured (V/SCE) correspond […]
# in a ventilated flask to transform promastigotes into axenic amastigotes. The amastigote stage was checked both by electron microscopy (short flagellum with small bulbous tip extending beyond a spherical cell body) and RT-PCR for confirming the overexpression of ATG8 and amastin genes in amastigotes, compared to promastigotes. The effects of the tested compounds on the growth of L. infantum axenic amastigotes were assessed as follows. L. infantum amastigotes were incubated at a density of 2 × 10^6 parasites/mL in sterile 96-well plates with various concentrations of compounds dissolved in DMSO (final concentration less than 0.5% v/v), in duplicate. Appropriate controls DMSO, amphotericin B, miltefosine and fexinidazole (reference drugs purchased from Sigma Aldrich) were added to each set of experiments. After a 48 h incubation period at 37 °C, each plate-well was then microscopically-examined to detect any precipitate formation. To estimate the luciferase activity of axenic amastigotes, 80 µL of each well were transferred to white 96-well plates, Steady Glow® reagent (Promega) was added according to manufacturer's instructions, and plates were incubated for 2 min. The luminescence was measured in Microbeta Luminescence Counter (PerkinElmer). Efficient […]
# metabolic activity of L. infantum amastigotes compared to control. EC 50 values were calculated by non- […]
# values represent the mean of three independent experiments.
# Antileishmanial activity on L. donovani promastigotes NTR1 and NTR2 over-expressing strain.
# Cell lines and culture conditions: The clonal Leishmania donovani cell line LdBOB (derived from MHOM/SD/62/1S-CL2D) was grown as promastigotes at 26 °C in modified M199 media, as previously described.[2] LdBOB promastigotes overexpressing NTR1 (LinJ.05.0660) and NTR2 (LinJ.12.0730) were grown in the presence of nourseothricin (100 µg/mL). To examine the effects of test compounds on growth, triplicate promastigote cultures were seeded with 5 × 10^4 parasites/mL. Parasites were grown in 10 ml cultures in the presence of drug for 72 h, after which 200 μL aliquots of each culture were added to 96-well plates, 50 μM resazurin was added to each well and fluorescence (excitation of 528
# [3] = test system: T. brucei brucei trypomastigotes; assay: Antitrypanosomal activity on T. brucei brucei trypomastigotes (AnTat 1.9, Alamar Blue); type: cell-based, Trypanosoma brucei brucei; conditions: for Antitrypanosomal activity against T. b. brucei (in words): trypomastigotes; for Selectivity index regarding T. b. brucei: HepG2 CC50 versus T. b. brucei EC50; for EC50: Trypanosoma brucei, read-out: T. b. brucei trypomastigotes EC50
# [4] = in vitro; conditions: human, Cytotoxicity HepG2 CC50
# [5] = Redox potentials by cyclic voltammetry in DMSO; conditions: 13 vs hit 2; 9, hit 1 and 2 vs pharmacophore; 10 vs 9; 5 vs 2
# [6] = PAMPA assay using a blood-brain barrier (BBB) model; type: in vitro ADME; conditions: tested concentration 100 µM, pH 7.4
# [7] = test system: Trypanosoma brucei brucei trypomastigotes wild type; assay: T. brucei trypomastigotes, wild type strain (S427); type: cell-based
# Description: Cells overexpressing NTR were
# Cell densities were determined after culture for 72 h, as previously described. EC50 values were determined using GraFit as described above.
# Cytotoxic evaluation on HepG2 cell line.
# Briefly, cells (1 × 10^5 cells/mL) in 100
# Each plate-well was then microscope-examined […]
# for 2 h at 37 °C and 5% CO2. […]
# added to dissolve the resulting formazan crystals. Plates were shaken vigorously (300 rpm) for 5 min.
# [8] = Tolerance in the mouse after oral administration
# [9] = test system: HepG2 cell line; assay: Alkaline comet assay on HepG2 cells; type: cell-based, human; conditions: HepG2, 1 and 10 μM, 2 or 72 h of incubation
# Text: Even though many safe nitroaromatic molecules are today on the market (for example, antiprotozoal 5-nitroimidazoles such as metronidazole, several antihypertensive dihydropyridines like nicardipine, some benzodiazepines like loprazolam, anti-Parkinson’s catechol O-methyltransferase (COMT) inhibitors like entacapone, antiandrogens like flutamide, anti-inflammatory nimesulide, immunomodulating azathioprine, anticoagulant acenocoumarol, anthelminthic niclosamide, etc.) or in clinical trials (for instance, delamanid), drugs including a nitroaromatic moiety suffer from a bad reputation as possible mutagenic or genotoxic molecules, which narrows their pharmaceutical development.[29] The Ames test is the most commonly used assay to evaluate the mutagenic potential of compounds, using Salmonella typhimurium strains. […] Thus it is accepted that the comet assay or the micronucleus assay are more pertinent methods to evaluate the genotoxic potential of nitroaromatic compounds. For example, fexinidazole is positive in the Ames test but negative in the micronucleus assay.[31] A comet assay was then performed on the HepG2 cell line with hit compound 12, using methylmethanesulfonate (MMS) as a positive control (see the Supporting Information).
# Electrophoresis (with a solution which contained
# 28 V (resulting in 0.8 V/cm).
# After staining with SYBR®
# Prague Czech Republic). […] The median […]
# [10] = test system: HepG2 cell line; conditions: human, 72 h
# [11] = In vivo pharmacokinetics in the mouse after oral administration; conditions: oral 25 mg/kg
# Description: Finally, the in vivo pharmacokinetic parameters were determined in the mouse, after oral administration at 25 mg/kg in a mixture of 5% Tween 80 and 95% of 0.5% carboxymethylcellulose in water, by using the QuEChERS method.[32] Monolix Lixoft software was used to analyze the data by a noncompartmental model to fit pharmacokinetics parameters.[33] […]
# acetonitrile with 0.1% formic acid. […] The […]
# decrease to 2% (B); 2.6 < t < 4 min, 2% (B). Carbamazepine, oxazepam, warfarine and diclofenac are […]
# The unbound fraction (fu) is […]
# internal standard (propranolol 200 nM).
# = 350 μL and Vplasma = 200 μL).
# All animals were kept under the same
# 3, 6, 9, 12, and 24h after administration. Blood samples were stored frozen until required for assay.
# Sample preparation for spectrometry analysis
# Megazol was used like the internal standard (IS). LC-MS Optima grade Acetonitrile (ACN) and […]
# sesquihydrate) were supplied by VWR.
# [12] = test system: human albumin; assay: Human albumin binding assay; type: in vitro ADME
# Description: are kept at 4 °C for immediate analysis or placed at -80 °C in case of postponement of the analysis.
# Controls (t0 and tfinal) in triplicate are prepared by incubation of the internal standard with microsomes denatured by acetonitrile. The LC-MS used for this study is a Waters® Acquity I-Class / Xevo TQD, equipped with a Waters® Acquity BEH C18 column, 50 x 2.1 mm, 1.7 μm. The mobile phases are (A) […]
# The injection volume is 1 µL and […]
# the flow rate is 600 µL/min.
# 98% (B); […]; 2.6 < t < 4 min, 2% (B). Compound 8-bromo-6- […]
# chloro-3-nitro-2-(phenylsulfonylmethyl)imidazo[1,2-a]pyridine is used as internal standard. The quantification of each compound is obtained by converting the average of the ratios of the analyte/internal standard surfaces to the percentage of consumed product. The ratio of the control at t0 corresponds to 0% of product consumed. The calculation of the half-life (t1/2) of each compound in the […]
# presence of microsomes is done according to the equation: . Where k is the first-order t1=k […]
# degradation constant (the slope of the logarithm of compound concentration versus incubation time).
# The intrinsic clearance in vitro (Cl int expressed in μL/min/mg) is calculated according to the equation:
# Clint= [microsomes]. […]
# [13] = test system: Salmonella typhimurium strains; conditions: cited from earlier work
# [14] = design: method as in PMID 21200426; conditions: cited from earlier work
# [15] = test system: L. infantum axenic amastigotes; conditions: previously reported pharmacophore and hit compounds; read-out: L. infantum axenic amastigote EC50; cited from earlier work
# [16] = test system: T. brucei brucei trypomastigotes; conditions: previously reported pharmacophore and hit compounds; cited from earlier work
# [17] = female, Swiss, whole blood of mouse, n = 4
smiles,measurement,setting,value
"O=c1[nH]c2c([N+](=O)[O-])cccc2cc1Cl [A, 3-chloro-8-nitroquinolin-2(1H)-one]",CC50,[1]; 3-chloro analogue A,85 ± 4 µM
O=c1ccc2cc(C(F)(F)F)ccc2[nH]1 [Compound 1],Activity toward L. infantum (in words),[2],inactive
same,Antitrypanosomal activity against T. b. brucei (in words),[3],inactive
O=c1ccc2cc(C(F)(F)F)cc([N+](=O)[O-])c2[nH]1 [Compound 2],CC50 at 72 h,[4],28 to 41 µM
same,Shift of the E° value versus the comparator compound,[5],+0.15 V
O=c1[nH]c2ccc(C(F)(F)F)cc2cc1Cl [Compound 3],Activity toward L. infantum (in words),[2],inactive
same,Antitrypanosomal activity against T. b. brucei (in words),[3],inactive
O=c1[nH]c2ccc(C(F)(F)F)cc2cc1Br [Compound 4],Activity toward L. infantum (in words),[2],inactive
same,Antitrypanosomal activity against T. b. brucei (in words),[3],inactive
COc1ccc2cc(C(F)(F)F)cc([N+](=O)[O-])c2n1 [Compound 5],Activity toward L. infantum (in words),[2],inactive
same,Shift of the E° value versus the comparator compound,[5],−0.36 V
O=c1[nH]c2c([N+](=O)[O-])cc(C(F)(F)F)cc2cc1Br [Compound 7],Selectivity index (antileishmanial),"[2]; regarding L. infantum, HepG2",> 10
same,BBB PAMPA assay Pe,[6],450.3 nm/s and 450.3 ± 170.5 nm/s
same,Selectivity index regarding T. b. brucei,[3],> 200
Nc1cc(C(F)(F)F)cc2cc(Br)c(=O)[nH]c12 [Compound 8],Activity toward L. infantum (in words),[2],inactive
O=c1ccc2cc(Br)cc([N+](=O)[O-])c2[nH]1 [Compound 9],CC50 at 72 h,[4],28 to 41 µM
same,Selectivity index regarding T. b. brucei,[3],> 200
same,Times more active than 3-bromo-position isomer (hit 1),[3]; T. b. brucei trypomastigotes,27
same,Times more active than the 8-nitroquinolin-2(1H)-one pharmacophore,[3]; T. b. brucei trypomastigotes,334
same,Shift of the E° value versus the comparator compound,[5],+0.14 V
O=c1[nH]c2c([N+](=O)[O-])cc(Br)cc2cc1Br [Compound 10],CC50 at 72 h,[4],17 µM
same,Selectivity index regarding T. b. brucei,[3],> 200
same,EC50,[3],0.012 to 0.05 µM
same,Shift of the E° value versus the comparator compound,[5],+0.03 V
O=c1[nH]c2c([N+](=O)[O-])cc(Cl)cc2cc1Cl [Compound 11],Selectivity index regarding T. b. brucei,[3],> 200
O=c1[nH]c2c([N+](=O)[O-])cc(Br)cc2cc1Cl [Compound 12],Activity compared with nifurtimox against T. b. brucei,[7],six times more active than nifurtimox
same,"Tolerance, repeated dose",[8]; 25 mg/kg once daily for 5 days,well tolerated without any adverse effect noted
same,Organ lesions after euthanasia,"[8]; kidney, liver, brain, heart, lung",no lesions were found
same,"Tolerance, oral dose",[8]; once daily oral dose at 25 or 50 mg/kg,well tolerated
same,BBB PAMPA assay Pe,[6],405.1 nm/s and 405.1 ± 69.3 nm/s
same,Times more active than 3-chloro-analogue A,[3]; T. b. brucei trypomastigotes,100
same,EC50,[3],0.012 to 0.05 µM
same,Comet assay (genotoxicity),[9],not genotoxic; also recorded: lack of genotoxicity; also recorded: Negative
same,Times more cytotoxic than reference drugs,[10],about 10
same,half-life at 24 h,"[11]; female, Swiss, plasma, mouse, read-out: Plasmatic half life (converted)",2.9 h
same,AUC(0-inf),[11]; [17],123 µg·h/mL
same,Cmax,[11]; [17],17.4 µg/mL
same,Tmax,[11]; [17],1.5 h
same,half-life,[11]; [17],2.87 h
same,Clairance,"[11]; whole blood of mouse, n = 4","0,00768 mL/h"
O=C(O)c1ccc(-c2cc3cc(Br)cc([N+](=O)[O-])c3[nH]c2=O)cc1 [Compound 13],Albumin binding assay,[12],> 99%
same,BBB PAMPA assay Pe,[6],12.7 nm/s and 12.7 ± 0.9 nm/s
same,Selectivity index regarding T. b. brucei,[3],> 200
same,Shift of the E° value versus the comparator compound,[5],+0.16 V
"COc1cccc2c1C(=O)c1c(O)c3c(c(O)c1C2=O)C[C@@](O)(C(=O)CO)C[C@@H]3O[C@H]1C[C@H](N)[C@H](O)[C@H](C)O1 [Doxorubicin, reference compound]",CC50,[10],0.2 ± 0.02 µM
CSc1ccc(OCc2ncc([N+](=O)[O-])n2C)cc1 [Fexinidazole],Ames test,[13],positive
same,Micronucleus assay,[14],negative
O=c1[nH]c2c([N+](=O)[O-])cccc2cc1Br [Hit 1],EC50,[15],7.1 ± 1.5 µM
same,CC50,[1]; previously reported pharmacophore and hit compounds,92 ± 13 µM
same,EC50,[16],1.9 ± 0.4 µM
same,Shift of the E° value versus the comparator compound,[5],+0.09 V
O=C(O)c1ccc(-c2cc3cccc([N+](=O)[O-])c3[nH]c2=O)cc1 [Hit 2],EC50,[15],> 100 µM
